The text below walks through data of patent US12679878B2, “CRF2 receptor agonists and their use in therapy” (SANOFI, priority 2020, dated 2026).

Read-outs that look alike come from different tables or passages of the source. Starred links: 1 amine or outer side, 2 acyl side, 3 side chain; linkers in the order of their positions; H or OH if unused. Non-standard residues stand in square brackets, D forms with d. Residues, ends and D or L forms follow the SMILES beside them. Groups on a side chain read outwards from the residue. *: point of attachment. C18 diacid = O=C(O)CCCCCCCCCCCCCCCCC(=O)*; C16 diacid = O=C(O)CCCCCCCCCCCCCCC(=O)*; γGlu = O=C(O)[C@H](CCC(=O)[*:2])N[*:1]; Palmitoyl = CCCCCCCCCCCCCCCC(=O)*; Aib = CC(C)(N)C(=O)O

The target in one assay is T1, CRF1R receptor (Homo sapiens, UniProt P34998).
T1 construct: host or cells: CHO-K1 clone 2
T1 sequence (P34998 24-415): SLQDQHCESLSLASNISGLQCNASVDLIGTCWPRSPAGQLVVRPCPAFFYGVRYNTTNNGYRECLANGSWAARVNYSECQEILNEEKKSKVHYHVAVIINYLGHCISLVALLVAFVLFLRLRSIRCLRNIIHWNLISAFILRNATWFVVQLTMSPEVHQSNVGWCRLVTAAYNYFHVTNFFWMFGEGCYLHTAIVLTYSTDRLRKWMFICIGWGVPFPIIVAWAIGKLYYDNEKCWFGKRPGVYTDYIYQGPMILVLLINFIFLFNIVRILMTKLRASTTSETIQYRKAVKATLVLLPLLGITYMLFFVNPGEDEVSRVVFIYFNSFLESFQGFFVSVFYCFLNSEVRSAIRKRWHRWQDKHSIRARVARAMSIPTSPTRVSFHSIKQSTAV
The assay can be described thus: cAMP activity at anti-target CRF1R, CHO-K1 cell line clone 2 (Example 19.10). It is filed as cell-based. The settings on record: 100% = Sauvagine at 100 nM; CRF1R CHO-K1 clone 2. On the procedure: The CRF1R-overexpression CHO-K1 cell line clone 2 was purchased from PerkinElmer.
Cells were grown in a 10 cm dish at 37° C./5% CO2 in medium (F12 (Hams)/10% FBS/400 μg/ml G418) to near confluence. At that stage, cells were harvested, resuspended to 10 million/mL in culture medium without G418 and with 10% DMSO. 1 mL vial aliquots were slowly frozen to -80° C. in isopropanol and then transferred in liquid nitrogen for storage. These vials were used to run the experiment following the procedure reported 10 in the previous paragraph, except for the compound used in the control well to define the 100% activation (Sauvagine at 100 nM)

The target of the next assay is T2, human CRF2α receptor (Homo sapiens, UniProt Q13324).
T2 construct: expressed in transfected cells; host or cells: TeloHEAC
T2 sequence (Q13324 1-411): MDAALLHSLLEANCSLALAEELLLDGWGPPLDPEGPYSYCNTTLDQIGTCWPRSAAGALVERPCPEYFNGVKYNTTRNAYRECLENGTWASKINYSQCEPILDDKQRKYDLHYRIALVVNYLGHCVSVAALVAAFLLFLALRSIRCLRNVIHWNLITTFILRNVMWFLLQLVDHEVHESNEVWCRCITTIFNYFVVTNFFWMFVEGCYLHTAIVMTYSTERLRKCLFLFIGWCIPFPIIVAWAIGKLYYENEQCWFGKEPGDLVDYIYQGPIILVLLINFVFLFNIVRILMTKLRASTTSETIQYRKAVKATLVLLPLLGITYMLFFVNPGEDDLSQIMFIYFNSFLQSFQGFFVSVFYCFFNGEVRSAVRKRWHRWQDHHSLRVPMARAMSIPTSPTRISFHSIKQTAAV
The assay can be described thus: cAMP agonism at human CRF2 α receptor in TeloHEAC cells (Example 7). Format: cell-based. Particulars: cAMP HTRF, TeloHEAC cells stably expressing human CRF2 α. The method in brief:
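Cryopreserved cells are thawed, washed and resuspended in IBMX-containing (2 mM) HEPES-buffered HBSS with or without 0.1% HSA. Compound incubation runs 30 min at room temperature with 2000 cells per well, then cAMP is measured by time-resolved FRET. Potency is expressed as EC50, efficacy relative to urocortin 2 at 1000 nM.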
A general note: Time-resolved FRET reads energy transfer from a long-lived donor to a nearby acceptor.

The mark [1] stands for this setting: 0% HSA, read-out: EC50 [nM], 0% HSA.
The mark [2] stands for this setting: 0.1% HSA, read-out: EC50 [nM], 0.1% HSA.

On to `CC[C@H](C)[C@H](N)C(=O)N[C@H](C(=O)N[C@@H](CC(C)C)C(=O)N[C@@H](CO)C(=O)N[C@@H](CC(C)C)C(=O)N[C@@H](CC(=O)O)C(=O)N[C@@H](C(=O)N1CCC[C@H]1C(=O)N[C@H](C(=O)N[C@@H](CCCCN)C(=O)N[C@@H](CC(C)C)C(=O)N[C@@H](CCCCNC(=O)CC[C@H](NC(=O)CCCCCCCCCCCCCCC(=O)O)C(=O)O)C(=O)N[C@@H](CCC(N)=O)C(=O)N[C@@H](CCCCN)C(=O)N[C@@H](CC(C)C)C(=O)N[C@@H](CC(C)C)C(=O)N[C@@H](CCCCN)C(=O)N[C@@H](CCC(N)=O)C(=O)N[C@@H](CCC(=O)O)C(=O)N[C@@H](CCCNC(=N)N)C(=O)N[C@@H](CCC(N)=O)C(=O)N[C@@H](CCCNC(=N)N)C(=O)N[C@@H](CCCCN)C(=O)N[C@@H](CCC(=O)O)C(=O)N[C@@H](CCCNC(=N)N)C(=O)N[C@@H](CCC(=O)O)C(=O)N[C@@H](CCC(N)=O)C(=O)N[C@@H](C)C(=O)N[C@@H](CCC(=O)O)C(=O)N[C@@H](CCCCN)C(=O)N[C@@H](CC(N)=O)C(=O)N[C@H](C(=O)N[C@@H](CCCNC(=N)N)C(=O)N[C@H](C(=O)N[C@@H](CC(C)C)C(=O)N[C@@H](CCC(=O)O)C(=O)N[C@@H](CCCNC(=N)N)C(=O)N[C@H](C(N)=O)C(C)C)[C@@H](C)CC)C(C)C)[C@@H](C)O)C(C)C)C(C)C` [SEQ ID NO: 222] (H-IVLSLD[dV]PTKLK([γGlu-C16 diacid])QKLLKQERQRKEREQAEKNVRILERV-NH2; N-terminus assumed), for which, at CRF1R receptor, the Emax was determined as 6.2%.

In turn, `CCCCCCCCCCCCCCCC(=O)N[C@@H](CCC(=O)NCCCC[C@H](NC(=O)[C@H](CC(C)C)NC(=O)[C@H](CCCCN)NC(=O)[C@@H](NC(=O)[C@@H]1CCCN1C(=O)[C@H](NC(=O)[C@H](CC(=O)O)NC(=O)[C@H](CC(C)C)NC(=O)[C@H](CO)NC(=O)[C@H](CC(C)C)NC(=O)[C@@H](NC(=O)[C@@H](N)[C@@H](C)CC)C(C)C)C(C)C)[C@@H](C)O)C(=O)N[C@@H](CCC(N)=O)C(=O)N[C@@H](CCCCN)C(=O)N[C@@H](CC(C)C)C(=O)N[C@@H](CC(C)C)C(=O)N[C@@H](CCCCN)C(=O)N[C@@H](CCC(N)=O)C(=O)N[C@@H](CCC(=O)O)C(=O)N[C@@H](CCCNC(=N)N)C(=O)N[C@@H](CCC(N)=O)C(=O)N[C@@H](CCCNC(=N)N)C(=O)N[C@@H](CCCCN)C(=O)N[C@@H](CCC(=O)O)C(=O)N[C@@H](CCCNC(=N)N)C(=O)N[C@@H](CCC(=O)O)C(=O)N[C@@H](CCC(N)=O)C(=O)N[C@@H](C)C(=O)N[C@@H](CCC(=O)O)C(=O)N[C@@H](CCCCN)C(=O)N[C@@H](CC(N)=O)C(=O)N[C@@H](CCCCN)C(=O)N[C@@H](CCCNC(=N)N)C(=O)N[C@H](C(=O)N[C@@H](CC(C)C)C(=O)N[C@@H](CCC(=O)O)C(=O)N[C@@H](CCCNC(=N)N)C(=O)N[C@H](C(N)=O)C(C)C)[C@@H](C)CC)C(=O)O` [SEQ ID NO: 223] (H-IVLSLD[dV]PTKLK([γGlu-Palmitoyl])QKLLKQERQRKEREQAEKNKRILERV-NH2; N-terminus assumed) displayed an Emax at CRF1R receptor of 57.3%.

As for `CC[C@H](C)[C@H](N)C(=O)N[C@H](C(=O)N[C@@H](CC(C)C)C(=O)N[C@@H](CO)C(=O)N[C@@H](CC(C)C)C(=O)N[C@@H](CC(=O)O)C(=O)N[C@@H](C(=O)N1CCC[C@H]1C(=O)N[C@H](C(=O)N[C@@H](CCCCN)C(=O)N[C@@H](CC(C)C)C(=O)N[C@@H](CCCCNC(=O)CC[C@H](NC(=O)CCCCCCCCCCCCCCCCC(=O)O)C(=O)O)C(=O)N[C@@H](CCC(N)=O)C(=O)N[C@H](C(=O)N[C@@H](CC(C)C)C(=O)N[C@@H](CC(C)C)C(=O)N[C@@H](CCCCN)C(=O)N[C@@H](CCC(N)=O)C(=O)N[C@@H](CCC(=O)O)C(=O)N[C@@H](CCCNC(=N)N)C(=O)N[C@@H](CCC(N)=O)C(=O)N[C@@H](CCCCN)C(=O)NC(C)(C)C(=O)N[C@@H](CCC(N)=O)C(=O)N[C@@H](CCCNC(=N)N)C(=O)N[C@@H](CCC(=O)O)C(=O)N[C@@H](CCC(N)=O)C(=O)N[C@@H](C)C(=O)N[C@@H](CCC(=O)O)C(=O)N[C@@H](CCCCN)C(=O)N[C@@H](CC(N)=O)C(=O)N[C@@H](CCCCN)C(=O)N[C@@H](CCC(N)=O)C(=O)N[C@H](C(=O)N[C@@H](CC(C)C)C(=O)N[C@@H](C)C(=O)N[C@@H](CCC(N)=O)C(=O)N[C@H](C(N)=O)C(C)C)[C@@H](C)CC)[C@@H](C)CC)[C@@H](C)CC)C(C)C)C(C)C` [compound 179] (H-IVLSLD[dV]PIKLK([γGlu-C18 diacid])QILLKQERQK[Aib]QREQAEKNKQILAQV-NH2; N-terminus assumed), the EC50 came to 0.03 nM on human CRF2α receptor (setting [1]) and 1.88 nM on human CRF2α receptor (setting [2]).

Take `CC[C@H](C)[C@H](N)C(=O)N[C@H](C(=O)N[C@@H](CC(C)C)C(=O)N[C@@H](CO)C(=O)N[C@@H](CC(C)C)C(=O)N[C@@H](CC(=O)O)C(=O)N[C@@H](C(=O)N1CCC[C@H]1C(=O)N[C@H](C(=O)N[C@@H](CCCCN)C(=O)N[C@@H](CC(C)C)C(=O)N[C@@H](CCCCNC(=O)CC[C@H](NC(=O)CCCCCCCCCCCCCCCCC(=O)O)C(=O)O)C(=O)N[C@@H](CCC(N)=O)C(=O)N[C@H](C(=O)N[C@@H](CC(C)C)C(=O)N[C@@H](CC(C)C)C(=O)N[C@@H](CCCCN)C(=O)N[C@@H](CCC(N)=O)C(=O)N[C@@H](C)C(=O)N[C@@H](CCCNC(=N)N)C(=O)N[C@@H](CCC(N)=O)C(=O)N[C@@H](CCCCN)C(=O)NC(C)(C)C(=O)N[C@@H](CCC(N)=O)C(=O)N[C@@H](CCCNC(=N)N)C(=O)N[C@@H](C)C(=O)N[C@@H](CCC(N)=O)C(=O)N[C@@H](C)C(=O)N[C@@H](CCC(=O)O)C(=O)N[C@@H](CCCCN)C(=O)N[C@@H](CC(N)=O)C(=O)N[C@@H](CCCCN)C(=O)N[C@@H](CCCNC(=N)N)C(=O)N[C@H](C(=O)N[C@@H](CC(C)C)C(=O)N[C@@H](CCC(=O)O)C(=O)N[C@@H](CCCNC(=N)N)C(=O)N[C@H](C(N)=O)C(C)C)[C@@H](C)CC)[C@@H](C)CC)[C@@H](C)CC)C(C)C)C(C)C` [compound 180] (H-IVLSLD[dV]PIKLK([γGlu-C18 diacid])QILLKQARQK[Aib]QRAQAEKNKRILERV-NH2; N-terminus assumed): the figures for the EC50 at human CRF2α receptor (setting [1]) and at human CRF2α receptor (setting [2]) were 0.05 nM and 1.74 nM, respectively.

For the compound `CC[C@H](C)[C@H](N)C(=O)N[C@H](C(=O)N[C@@H](CC(C)C)C(=O)N[C@@H](CO)C(=O)N[C@@H](CC(C)C)C(=O)N[C@@H](CC(=O)O)C(=O)N[C@@H](C(=O)N1CCC[C@H]1C(=O)N[C@H](C(=O)N[C@@H](CCCCN)C(=O)N[C@@H](CC(C)C)C(=O)N[C@@H](CCCCNC(=O)CC[C@H](NC(=O)CCCCCCCCCCCCCCCCC(=O)O)C(=O)O)C(=O)N[C@@H](CCC(N)=O)C(=O)N[C@H](C(=O)N[C@@H](CC(C)C)C(=O)N[C@@H](CC(C)C)C(=O)N[C@@H](CCCCN)C(=O)N[C@@H](CCC(N)=O)C(=O)N[C@@H](CCC(=O)O)C(=O)N[C@@H](CCCNC(=N)N)C(=O)N[C@@H](CCC(N)=O)C(=O)N[C@@H](CCCCN)C(=O)N[C@@H](CCCCN)C(=O)N[C@@H](CCC(N)=O)C(=O)N[C@@H](CCCNC(=N)N)C(=O)N[C@@H](CCC(N)=O)C(=O)N[C@@H](CCC(N)=O)C(=O)N[C@@H](C)C(=O)N[C@@H](CCC(=O)O)C(=O)N[C@@H](CCCCN)C(=O)N[C@@H](CC(N)=O)C(=O)N[C@@H](CCCCN)C(=O)N[C@@H](CCC(N)=O)C(=O)N[C@H](C(=O)N[C@@H](CC(C)C)C(=O)N[C@@H](C)C(=O)N[C@@H](CCC(N)=O)C(=O)N[C@H](C(N)=O)C(C)C)[C@@H](C)CC)[C@@H](C)CC)[C@@H](C)CC)C(C)C)C(C)C` [compound 181] (H-IVLSLD[dV]PIKLK([γGlu-C18 diacid])QILLKQERQKKQRQQAEKNKQILAQV-NH2; N-terminus assumed), the results for the EC50 on human CRF2α receptor (setting [1]) and on human CRF2α receptor (setting [2]) were 1.18 nM and 15.3 nM, respectively.

The Emax is the maximal effect, on the per cent scale that the assay sets. One may read the EC50 as the concentration giving half of the maximal effect.
